The text below walks through data of ChEMBL document CHEMBL1201862, “PubChem BioAssay data set” (2004).

Test [1] is described as follows: Luminescence Cell-Based Dose Retest to Confirm Inhibitors of Cancer Stem Cells. [Related pubchem assays (depositor defined):AID2717, AID2721]. It counts as functional. Particulars: Homo sapiens.
A short description of test [2]: cells. It counts as functional, cell-based.
In test [3] the target is T1, Nuclear receptor subfamily 0 group B member 1 (Homo sapiens, UniProt P51843).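 Note: HEK293T cells transfected with SF-1 and DAX-1 plus StAR promoter luciferase reporter.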
T1 sequence (P51843 whole entry): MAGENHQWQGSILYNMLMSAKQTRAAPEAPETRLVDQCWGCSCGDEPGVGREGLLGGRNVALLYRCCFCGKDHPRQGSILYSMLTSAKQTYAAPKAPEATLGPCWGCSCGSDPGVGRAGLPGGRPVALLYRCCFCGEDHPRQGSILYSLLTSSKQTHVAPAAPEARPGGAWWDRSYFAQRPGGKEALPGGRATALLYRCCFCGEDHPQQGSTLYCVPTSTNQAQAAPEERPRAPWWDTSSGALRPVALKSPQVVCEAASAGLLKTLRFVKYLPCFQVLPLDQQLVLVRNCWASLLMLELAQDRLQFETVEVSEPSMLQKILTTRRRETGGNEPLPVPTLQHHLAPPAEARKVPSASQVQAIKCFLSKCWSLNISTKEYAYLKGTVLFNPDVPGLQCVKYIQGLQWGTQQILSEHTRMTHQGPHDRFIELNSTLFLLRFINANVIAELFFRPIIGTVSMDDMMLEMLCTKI
It counts as functional, cell-based.

For test [4], the target named is T2, Fructose-bisphosphate aldolase (Mycobacterium tuberculosis, UniProt P9WQA3).
T2 sequence (P9WQA3 whole entry): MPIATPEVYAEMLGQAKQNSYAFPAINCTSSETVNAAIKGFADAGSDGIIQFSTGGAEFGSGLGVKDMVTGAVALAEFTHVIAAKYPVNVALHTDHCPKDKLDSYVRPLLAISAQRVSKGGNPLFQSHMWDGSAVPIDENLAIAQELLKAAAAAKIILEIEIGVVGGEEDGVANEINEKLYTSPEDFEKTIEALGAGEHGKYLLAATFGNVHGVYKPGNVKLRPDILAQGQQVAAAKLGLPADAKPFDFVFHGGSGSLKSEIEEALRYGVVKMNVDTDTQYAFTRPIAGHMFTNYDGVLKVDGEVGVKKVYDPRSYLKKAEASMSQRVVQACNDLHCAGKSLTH
Put plainly: Fluorescence-based biochemical high throughput dose response assay for inhibitors of the fructose-bisphosphate aldolase (FBA) of M. tuberculosis. It counts as functional.

The subject of another test is Vero. Nature of the test: viability loss in Vero cells – cell-based, plate reader, cherry-pick samples, cytotoxicity control, dose response (AID 687020). The class given is functional. Particulars: Chlorocebus sabaeus.
For test [5], the target named is Nuclear receptor subfamily 5 group A member 2 (Homo sapiens, UniProt O00482). It counts as functional, cell-based.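 Note: HEK293T cells transfected with LRH-1 and a StAR promoter luciferase reporter; potency for inhibitors that lower LRH-1 driven reporter light.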
Sequence of Nuclear receptor subfamily 5 group A member 2 (O00482 whole entry): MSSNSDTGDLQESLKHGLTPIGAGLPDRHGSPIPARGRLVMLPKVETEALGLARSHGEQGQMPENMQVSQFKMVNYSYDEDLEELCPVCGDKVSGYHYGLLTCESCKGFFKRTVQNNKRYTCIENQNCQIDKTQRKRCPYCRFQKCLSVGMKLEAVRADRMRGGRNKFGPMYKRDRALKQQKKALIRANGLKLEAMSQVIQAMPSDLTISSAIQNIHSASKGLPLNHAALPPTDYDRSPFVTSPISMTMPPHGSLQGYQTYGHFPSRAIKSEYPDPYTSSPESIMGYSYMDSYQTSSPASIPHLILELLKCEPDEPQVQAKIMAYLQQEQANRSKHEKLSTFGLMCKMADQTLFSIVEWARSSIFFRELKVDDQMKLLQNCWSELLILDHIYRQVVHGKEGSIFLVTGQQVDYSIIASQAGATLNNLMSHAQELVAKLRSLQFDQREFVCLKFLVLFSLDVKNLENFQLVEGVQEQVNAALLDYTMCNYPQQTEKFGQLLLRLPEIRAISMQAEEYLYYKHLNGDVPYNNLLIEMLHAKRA
In the next test the target is Steroidogenic factor 1 (Homo sapiens, UniProt Q13285). Nature of the test: Counterscreen for inverse agonists of the liver receptor homolog-1 (LRH-1; NR5A2): Luminescence-based cell-based high throughput dose response assay to identify inverse agonists of the Steroidogenic Factor 1 Nuclear Receptor (SF1; NR5A1). The class given is functional. (A counterscreen serves to expose hits that act by an unwanted route or on another target.)
Sequence of Steroidogenic factor 1 (Q13285 whole entry): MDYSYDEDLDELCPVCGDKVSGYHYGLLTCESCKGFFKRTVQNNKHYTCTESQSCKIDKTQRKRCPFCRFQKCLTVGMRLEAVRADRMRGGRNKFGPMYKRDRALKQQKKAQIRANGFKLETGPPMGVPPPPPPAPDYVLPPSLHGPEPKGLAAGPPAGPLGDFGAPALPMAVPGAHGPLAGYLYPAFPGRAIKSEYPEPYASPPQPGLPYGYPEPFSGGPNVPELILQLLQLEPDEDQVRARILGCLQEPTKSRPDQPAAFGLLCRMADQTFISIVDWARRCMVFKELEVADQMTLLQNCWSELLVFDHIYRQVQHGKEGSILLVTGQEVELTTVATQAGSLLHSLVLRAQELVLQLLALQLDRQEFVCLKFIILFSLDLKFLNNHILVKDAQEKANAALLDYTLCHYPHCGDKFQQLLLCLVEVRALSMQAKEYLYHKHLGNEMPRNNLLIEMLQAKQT

A short description of test [6]: nonselective StAR promoter luciferase inhibitors – cell-based, luminescence, luciferase reporter, counter-screen for LRH-1 inverse agonist project, dose response (AID 651969). The class given is functional. (In general: A reporter such as luciferase makes a cellular process visible.)
A short description of test [7]: viability of uninfected HEp-2 cells – cell-based, HTS, cytotoxicity control for RSV inhibitor project, dose response (AID 2410). It counts as functional. Particulars: human respiratory syncytial virus.
Test [8] in a line: viability of PTEN-deleted HCT116 cells – cell-based, HCT116 PTEN knockout, dose response (AID 1047).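 Note: HCT116 colon tumor cells with PTEN knocked out; cells exposed to compound for 60 hours before readout; potency for loss of cell viability measured by luminescence.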 The class given is functional.
Test [9] addresses T3, Sentrin-specific protease 1 (Homo sapiens, UniProt Q9P0U3).
T3 sequence (Q9P0U3 whole entry): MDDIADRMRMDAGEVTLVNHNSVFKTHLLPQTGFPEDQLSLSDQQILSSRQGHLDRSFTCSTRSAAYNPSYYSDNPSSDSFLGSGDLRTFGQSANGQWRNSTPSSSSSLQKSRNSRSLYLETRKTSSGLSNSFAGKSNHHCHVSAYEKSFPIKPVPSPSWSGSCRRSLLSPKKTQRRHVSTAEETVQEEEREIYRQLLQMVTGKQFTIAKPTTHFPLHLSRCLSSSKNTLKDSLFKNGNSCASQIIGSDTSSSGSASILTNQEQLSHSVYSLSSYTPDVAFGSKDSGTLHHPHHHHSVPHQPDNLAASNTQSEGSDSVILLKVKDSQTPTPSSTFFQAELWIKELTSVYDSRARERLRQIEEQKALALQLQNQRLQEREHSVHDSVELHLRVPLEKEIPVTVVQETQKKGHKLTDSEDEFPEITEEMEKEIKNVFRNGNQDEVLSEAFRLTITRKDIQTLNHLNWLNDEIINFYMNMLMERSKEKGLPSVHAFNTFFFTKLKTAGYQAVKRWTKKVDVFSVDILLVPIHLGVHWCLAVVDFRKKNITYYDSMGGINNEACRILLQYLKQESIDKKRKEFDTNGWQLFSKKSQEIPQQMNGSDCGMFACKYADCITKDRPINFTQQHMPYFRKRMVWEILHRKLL
Put plainly: Dose response confirmation of small molecule inhibitors of the catalytic domain of the SUMO protease, SENP1 in a FRET assay. The class given is functional. The conditions noted are these: read-out: IC50_Mean.

For another test, the target named is Cytochrome P450 2C9 (Homo sapiens, UniProt P11712).
Sequence of Cytochrome P450 2C9 (P11712 whole entry): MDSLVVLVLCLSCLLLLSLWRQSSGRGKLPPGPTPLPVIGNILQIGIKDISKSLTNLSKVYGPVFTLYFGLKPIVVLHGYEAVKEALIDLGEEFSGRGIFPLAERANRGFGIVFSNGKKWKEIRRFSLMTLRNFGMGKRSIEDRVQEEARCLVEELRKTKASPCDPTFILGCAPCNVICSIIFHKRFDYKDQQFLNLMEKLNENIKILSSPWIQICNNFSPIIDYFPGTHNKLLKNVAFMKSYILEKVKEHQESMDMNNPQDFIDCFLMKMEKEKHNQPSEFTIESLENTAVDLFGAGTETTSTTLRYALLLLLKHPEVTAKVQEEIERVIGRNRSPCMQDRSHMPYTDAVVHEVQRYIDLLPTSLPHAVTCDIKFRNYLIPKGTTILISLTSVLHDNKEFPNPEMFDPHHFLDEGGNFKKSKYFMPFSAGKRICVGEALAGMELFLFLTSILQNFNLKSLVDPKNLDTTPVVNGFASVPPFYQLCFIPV
A further test deals with T4, Galanin receptor type 3 (Homo sapiens, UniProt O60755).
T4 sequence (O60755 whole entry): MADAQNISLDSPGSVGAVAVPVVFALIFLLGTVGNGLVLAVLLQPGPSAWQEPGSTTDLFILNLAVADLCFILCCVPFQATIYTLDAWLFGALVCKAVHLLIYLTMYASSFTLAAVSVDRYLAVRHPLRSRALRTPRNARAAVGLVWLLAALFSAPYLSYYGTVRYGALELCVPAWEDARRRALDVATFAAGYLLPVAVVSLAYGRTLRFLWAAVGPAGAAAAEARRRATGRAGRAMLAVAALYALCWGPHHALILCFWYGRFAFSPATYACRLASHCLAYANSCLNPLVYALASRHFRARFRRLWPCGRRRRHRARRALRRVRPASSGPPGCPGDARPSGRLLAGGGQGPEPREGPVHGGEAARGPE
Nature of the test: Fluorescence-based cell-based primary high throughput dose response assay to identify antagonists of the Galanin Receptor 3 (GalR3). It counts as functional.

Test [10] is described as follows: cells. It counts as functional, cell-based. The conditions noted are these: HEK-CNG.
A short description of test [11]: reduction of Shn3 3'UTR-driven luciferase in osteoblasts – cell-based, Clone20 osteoblasts, firefly luciferase, cherry-picked, dose response (AID 624132).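 Note: firefly luciferase luminescence from reporter carrying the Shn3 3'UTR in osteoblasts.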 The class given is functional.
Test [12] is described as follows: loss of viability in HepG2 cells – cell-based, CellTiter-Glo, cherry-picked, cytotoxicity control for Shn3 inhibitor project, dose response (AID 624134). It counts as functional. In general terms: ATP-based viability assays read luminescence as a measure of living cells.
Test [13] in a line: non-specific 3'UTR reporter inhibition in Clone20-Shn3RL – cell-based, Renilla luciferase, cherry-picked, counter-screen for Shn3 inhibitor project, dose response (AID 624133). It counts as functional.
Test [14] deals with Photoreceptor-specific nuclear receptor (Homo sapiens, UniProt Q9Y5X4). The class given is functional, cell-based.
Sequence of Photoreceptor-specific nuclear receptor (Q9Y5X4 whole entry): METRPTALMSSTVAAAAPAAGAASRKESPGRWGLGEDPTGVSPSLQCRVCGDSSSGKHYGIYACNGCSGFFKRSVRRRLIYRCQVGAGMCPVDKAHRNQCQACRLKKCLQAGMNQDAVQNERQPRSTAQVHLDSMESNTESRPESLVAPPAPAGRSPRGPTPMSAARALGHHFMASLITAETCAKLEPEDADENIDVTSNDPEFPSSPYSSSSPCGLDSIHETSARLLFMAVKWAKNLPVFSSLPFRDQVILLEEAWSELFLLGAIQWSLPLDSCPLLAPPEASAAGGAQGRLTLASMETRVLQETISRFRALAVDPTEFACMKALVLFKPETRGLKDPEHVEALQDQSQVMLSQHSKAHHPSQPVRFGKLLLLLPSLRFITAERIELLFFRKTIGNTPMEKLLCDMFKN

Activity calls are given as the source filed them. Some results are limits rather than exact numbers.

The AC50 is the midpoint of the concentration-response curve, whichever way the signal moves. The CC50 is the concentration giving 50% cytotoxicity. As a reminder, the EC50 is the concentration that produces a half-maximal response.

Regarding `CCCCCCC[C@@H](C/C=C/CCC(=O)N(C)C/C(=C/Cl)C/C(=C\C(=O)N1CC(OC)=CC1=O)OC)OC`, the AC50 in test [1] was 4.12 µM (active). Moreover, the IC50 in the test “cells [2]” is > 67.5 µM (inactive); in test [3], > 0.278 µM (active).
For `CCNC(=O)NC(=O)COC(=O)c1ccccc1SCC(=O)NC(=O)NCC`, the IC50 in [4] is 0.969 µM (active).
With `COc1cccc(NC(=O)[C@H](NC(=O)[C@@H]2Cc3ccccc3CN2)c2ccccc2)c1`, the IC50 (in the test “cells [2]”; in test [3]) was > 67.5 µM (inactive) each time.
As for `O=C1CCN(CCc2ccccc2)CCN1[C@H](COc1ccccc1)c1ccccc1`, the AC50 in the test with Vero is 21.8 µM (active).
As to `CCOc1ccc(NC(=O)COC(=O)COc2cccc3c2OC(C)(C)C3)cc1`, the IC50 in test [5] is 15.5 µM (inactive); on Steroidogenic factor 1 it was 2.55 µM (active); in test [6], 35.9 µM (inactive).
Take `C=CCNc1nc(Nc2ccc(-c3nc4ccccc4o3)cc2)nc(N2CCOCC2)n1`: in test [7], the CC50 was 27.3 µM (active). Moreover, in test [8], the EC50 was 43.5 µM (active). The IC50 in test [4] is 0.213 µM (active).
Take `CC(C)(Oc1ccc(Cl)cc1)C(=O)OCC(=O)NCCc1ccccc1`: the IC50 in [5] was 5.98 µM (active); at Steroidogenic factor 1, 6.16 µM (active); in test [6], 35.9 µM (inactive).
For the molecule `O=C1NC(=S)N/C1=C/c1cccc([N+](=O)[O-])c1O`, the IC50 in test [9] was 37.4 µM (inactive). The AC50 on Cytochrome P450 2C9 was 12.6 µM (inconclusive).
In the case of `CC(NCC#Cc1ccccc1)C(O)c1ccccc1` (stereo not drawn), the IC50 at Galanin receptor type 3 is > 29.9 µM (inactive). In “cells [10]”, the EC50 is > 29.9 µM (inactive).
Take `CCN(CC)S(=O)(=O)c1cc(NC(=O)CNc2cccc(S(=O)(=O)N3CCOCC3)c2)ccc1C`: the AC50 is 2.97 µM (active) in test [11], 1.89 µM (active) in test [12] and 2.17 µM (active) in test [13]. For the same molecule, the IC50 at Galanin receptor type 3 is 0.449 µM (active). In addition, the EC50 in the test “cells [10]” is > 29.9 µM (inactive).
`COc1ccc(S(=O)(=O)N2CCCCC2)cc1N=C(S)Nc1ccccc1`: the IC50 in test [14] is 1.22 µM (active).
Consider `CCC(C)NC(=O)c1ccc2c(c1)N(Cc1ccccc1)C(=O)CS2` (stereo not drawn), for which the values for the IC50 (in test [5]; at Steroidogenic factor 1; in test [6]) were 16.3 µM (inactive), 5.68 µM (active) and 35.9 µM (inactive), respectively.
Consider `CCOC(=O)CC[C@H](NC(=O)Cn1cnc2c(OCc3ccccc3)ncnc21)C(=O)OCC`, for which the AC50 with Vero is 36 µM (active).
`COc1ccc(NC(=O)c2sc(=O)n(Cc3cccc(C(F)(F)F)c3)c2C)cc1OC`: the IC50 in test [14] is 13.9 µM (inactive).
Regarding `O=C1c2ccccc2/C(=C\c2ccc(Br)nc2)N1c1ccccc1`, the AC50 in the test with Vero is 38.8 µM (active).
For `O=c1oc2ccccc2cc1-c1ccccc1`, in test [4], the IC50 was 2.78 µM (active).
